Results as given in patent US6423741B1, “Anti-microbial composition and method for producing the same” (priority 1998, dated 2002).
Values after ≈ are worked out from the molar mass of the structure shown. Like-named read-outs stand apart in the source and are kept apart here.

Assays:
[1] = test system: Escherchia coli mutant A4; assay: Minimum inhibitory concentration of nalidixic acid; assay type: cell-based
Method: (§1) To determine the correlation between nalidixic acid and α-arteether sensitivity, the applicants selected Escherchia coli cultures which were resistant to nalidixic acid at varying degrees (concentrations). Based on the minimal inhibitory concentration of nalidixic acid, Escherchia coli mutants were grouped as highly sensitive (MIC less than or equal to 10 μg/ml), resistant (MIC 10 to 200 μg/ml), […] (MIC more than or equal to 200 μg/ml). These strains were then tested for their sensitivity against α-arteether by estimating their growth (Absorbance at 620 nano meter wavelength of light) in presence of increasing concentrations of α-arteether. The absorbance data was converted to percent growth by considering the absorbance in control as 100%. The growth was then quantified as follows: 1.) greater than 80% growth : the mutant is highly resistant to α-arteether; 2.) 20 to 80% growth : the mutant is moderately resistant to α-arteether; 3.) less than 20% growth : the mutant is sensitive to α-arteether. […] In other words Escherchia coli mutants most resistant to nalidixic acid are most efficiently killed by α-arteether (Table 4) and vice versa.

[2] = test system: Escherchia coli mutant A3; assay: Minimum inhibitory concentration of nalidixic acid; assay type: cell-based
Method: as §1

[3] = test system: Escherchia coli mutant A1; assay: Minimum inhibitory concentration of nalidixic acid; assay type: cell-based
Method: as §1

[4] = test system: Escherchia coli mutant A2; assay: Minimum inhibitory concentration of nalidixic acid; assay type: cell-based
Method: as §1

M2 = assay: Resistance study, combination treatment vs mixed mutant cultures (optical density at 620 nm); assay type: cell-based, E. coli
From the text: (§2) Continuing with the experimentation the applicants analyzed the growth of the mutant strains individually and upon co-cultivation compared to the wild type in presence of the compounds individually and in combination.

M1 = assay: as above; assay type: cell-based, E. coli
From the text: as §2

M1 + M2 (co-cultivation) = assay: as above; assay type: cell-based, E. coli
From the text: as §2

E. coli Wildtype = assay: as above; assay type: cell-based
From the text: as §2

M2 (Mutant) = assay: Disc sensitivity of E. coli strains; assay type: cell-based; settings: second mutant (M2) developed from gyr A− mutant; no dose stated
From the text: (§3) Since pathogens always try to counter the drug by genetically modifying itself through mutation(s) in the region of the drug target gene, it is necessary to kill those mutant(s) resistant cells for effective drug management. With this rationale, the applicants evaluated a selected drug resistant mutant strain (Ml) for nalidixic acid (wild type strains being sensitive to nalidixic acid). This mutant strain developed from wild type was defective in Gyr A subunit confirmed by mobilizing a plasmid bearing a wild type gyr A gene. […] Similarly a second mutant (M2) developed from the gyr A^− mutant strain (Nal^r) became sensitive to nalidixic acid which being resistant to α arteether (Table 3). It was noted that invariably among all the tested strains, those resistant to nalidixic acid were sensitive to α arteether and the strains sensitive to nalidixic acid were resistant to cc arteether. […] This is so, because the resistance to nalidixic acid is developed by gyr A mutation and the mutants will be killed by α arteether while, the α-arteether resistant strains will automatically become nalidixic acid sensitive and thus will be killed by nalidixic acid and this way all the spontaneous resistant bacteria could be contained.

E. coli (Wildtype) = assay: Disc sensitivity of E. coli strains; assay type: cell-based; settings: wild type strains; no dose stated
From the text: as §3

[5] = test system: M1 (Mutant), gyr A− mutant; assay: Disc sensitivity of E. coli strains; assay type: cell-based; settings: gyr A− mutant (M1) developed from wild type; no dose stated
From the text: as §3

[6] = test system: Escherchia coli (Wild type); assay: Frequency of spontaneous resistance on poison agar with nalidixic acid; assay type: cell-based; settings: 50 μg/ml nalidixic acid poison agar
Method: (§4) In an experiment, the applicants first determined the frequency of spontaneous mutations in the bacteria Escherchia coil (Kumar, S. 1976. Journal of Bacteriology, 125: 545-555.) and Mycobacterium smegmatis (Snapper, S. B., Melton, R. E., Mustafa, S., Kieser, T. and Jacobs, W. R. 1990. Molecular Microbiology. 4:1911-1919.) leading to subsequent resistance development through selection in the presence of these drugs. Known titers of broth cultures of the bacteria were diluted and plated on poison agar medium containing 50 μg/ml nalidixic acid, and the resistant colonies thus developed were counted to estimate the frequency of drug resistance (Nal) development (Table 1).

[7] = test system: Mycobacterium smegmatis (Wild type); assay: as above; assay type: cell-based; settings: 50 μg/ml nalidixic acid poison agar
Method: as §4

[8] = test system: Escherchia coli mutant A4; assay: Growth (absorbance at 620 nm) at increasing concentrations of α-arteether; assay type: cell-based
Method: as §1

[9] = test system: Escherchia coli mutant A3; assay: as above; assay type: cell-based
Method: as §1

[10] = test system: Escherchia coli mutant A1; assay: as above; assay type: cell-based
Method: as §1

[11] = test system: Escherchia coli mutant A2; assay: as above; assay type: cell-based
Method: as §1

[12] = test system: gyr mutant (Nal^r) strains of E.coli; settings: earlier invention; cited from earlier work
[13] = test system: wild type (Nal^s) strains of E.coli; settings: earlier invention; cited from earlier work
[14] = test system: Mycobacterium smegmatis (Nal′); assay: Frequency of spontaneous resistance on plates with α-arteether; assay type: cell-based; settings: 1000 μg/ml α-arteether
Method: (§5) Further to determine the frequency of spontaneous resistant mutants in Escherchia coil and Mycobacterium smegmatis for α-arteether, the applicants used the nalidixic acid resistant mutants from the earlier example as the wild type strains since those were sensitive to α-arteether to isolate α-arteether resistant colonies. Known titers of broth cultures of the mutant (Nal) bacteria were diluted and plated in petriplates containing 1000 μg/ml α-arteether, and the resistant colonies thus developed were counted to determine the frequencies (Table 2).

Escherchia coli (Nal′) = assay: as above; assay type: cell-based; settings: 1000 μg/ml α-arteether
Method: as §5

Activity at different pH = settings: pH (neutral)
Method: Further, it is worth noting here that the said compounds of the invention are already in use for human consumption and the safety data of applications of the compounds are already known. As a known example of prior art (Asthana, O. P, Srivastava, J. S and Valecha, N., 1997. Current status of the artemisinin derivatives in the treatment of malaria with focus on arteether. Journal of Parasitic Diseases. 21: 1-12.), α/β arteether mixture is given at 150 mg doses (one dose per day, for 3 days) as intramuscular injection for treatment of drug resistant and cerebral malaria cases. The injections in the mentioned preparation are prepared in neutralized vegetable oil. Both the compounds of invention that is, α arteether and the quinolones have shown the best activities at pH 7.0 (neutral) in our experiments. Thus, the composition of this invention can be used to treat bacterial infections, particularly the cases where the emergence of drug resistance is known to have high incidence level. The said composition/composition can be employed for prevention of resistance development through random mutations occurring in bacteria against antibiotics. Various classes of quinolone drugs thus can be administered along with α-arteether in form of injection by suspending the compound in the neutralised vegetable oil. […]

[15] = read-out: Group by minimal inhibitory concentration of nalidixic acid
[16] = read-out: Minimum inhibitory concentration of nalidixic acid

SMILES: CCn1cc(C(=O)O)c(=O)c2ccc(C)nc21 [nalidixic acid]
- MIC [1, 15]: > 200 µg/mL
- MIC [1, 16]: > 300 µg/mL
- MIC [2, 15]: 10 to 200 µg/mL (≈ 43.1 to 861 µM)
- MIC [2, 16]: 150 µg/mL (≈ 646 µM)
- Group by minimal inhibitory concentration of nalidixic acid ([3]; mutant A1): sensitive)
- MIC [3, 16]: < 4 µg/mL
- MIC [4, 15]: 10 to 200 µg/mL (≈ 43.1 to 861 µM)
- MIC [4, 16]: 37.5 µg/mL (≈ 161 µM)
- Optical density at 620 nanometer (M2; nalidixic acid 50 μg/ml): 0.000
- Optical density at 620 nanometer (M2; nalidixic acid 300 μg/ml): 0.000
- Optical density at 620 nanometer (M1; nalidixic acid 50 μg/ml): 0.950
- Optical density at 620 nanometer (M1; nalidixic acid 300 μg/ml): 0.960
- Optical density at 620 nanometer (M1 + M2 (co-cultivation); nalidixic acid 50 μg/ml): 0.910
- Optical density at 620 nanometer (M1 + M2 (co-cultivation); nalidixic acid 300 μg/ml): 0.920
- Optical density at 620 nanometer (E. coli Wildtype; nalidixic acid 50 μg/ml): 0.000
- Optical density at 620 nanometer (E. coli Wildtype; nalidixic acid 300 μg/ml): 0.000
- Sensitivity of the strain (M2 (Mutant)): sensitive
- Sensitivity of the strain (E. coli (Wildtype)): sensitive
- Sensitivity of the strain [5]: resistant
- Frequency of spontaneous resistance developed against Nalidixic acid [6]: 7.1 × 10^−9
- Frequency of spontaneous resistance developed against Nalidixic acid [7]: 1.0 × 10^−10

SMILES: CCO[C@@H]1O[C@@H]2O[C@]3(C)CC[C@H]4[C@H](C)CC[C@@H]([C@H]1C)[C@@]24OO3 [α-arteether]
- Growth (absorbance at 620 nm) ([8]; 400 μg/ml α-arteether): 0.017
- Percent growth (absorbance in control as 100%) ([8]; 400 μg/ml α-arteether): (2%)
- Growth (absorbance at 620 nm) ([8]; 800 μg/ml α-arteether): 0.007
- Percent growth (absorbance in control as 100%) ([8]; 800 μg/ml α-arteether): (0.7%)
- Growth (absorbance at 620 nm) ([8]; 1200 μg/ml α-arteether): 0.000
- Percent growth (absorbance in control as 100%) ([8]; 1200 μg/ml α-arteether): (0%)
- Growth (absorbance at 620 nm) ([9]; 400 μg/ml α-arteether): 0.421
- Percent growth (absorbance in control as 100%) ([9]; 400 μg/ml α-arteether): (50%)
- Growth (absorbance at 620 nm) ([9]; 800 μg/ml α-arteether): 0.405
- Percent growth (absorbance in control as 100%) ([9]; 800 μg/ml α-arteether): (47%)
- Growth (absorbance at 620 nm) ([9]; 1200 μg/ml α-arteether): 0.390
- Percent growth (absorbance in control as 100%) ([9]; 1200 μg/ml α-arteether): 46%
- Growth (absorbance at 620 nm) ([10]; 400 μg/ml α-arteether): 0.858
- Percent growth (absorbance in control as 100%) ([10]; 400 μg/ml α-arteether): (93%)
- Growth (absorbance at 620 nm) ([10]; 800 μg/ml α-arteether): 0.854
- Percent growth (absorbance in control as 100%) ([10]; 800 μg/ml α-arteether): (93%)
- Growth (absorbance at 620 nm) ([10]; 1200 μg/ml α-arteether): 0.817
- Percent growth (absorbance in control as 100%) ([10]; 1200 μg/ml α-arteether): (89%)
- Growth (absorbance at 620 nm) ([11]; 400 μg/ml α-arteether): 0.607
- Percent growth (absorbance in control as 100%) ([11]; 400 μg/ml α-arteether): (66%)
- Growth (absorbance at 620 nm) ([11]; 800 μg/ml α-arteether): 0.539
- Percent growth (absorbance in control as 100%) ([11]; 800 μg/ml α-arteether): (58%)
- Growth (absorbance at 620 nm) ([11]; 1200 μg/ml α-arteether): 0.458
- Percent growth (absorbance in control as 100%) ([11]; 1200 μg/ml α-arteether): (50%)
- Optical density at 620 nanometer (M2; α arteether 400 μg/ml): 0.900
- Optical density at 620 nanometer (M2; α arteether 800 μg/ml): 0.91
- Optical density at 620 nanometer (M1; α arteether 400 μg/ml): 0.000
- Optical density at 620 nanometer (M1; α arteether 800 μg/ml): 0.000
- Optical density at 620 nanometer (M1 + M2 (co-cultivation); α arteether 400 μg/ml): 0.920
- Optical density at 620 nanometer (M1 + M2 (co-cultivation); α arteether 800 μg/ml): 0.930
- Effectiveness against the strains [12]: effective
- Optical density at 620 nanometer (E. coli Wildtype; α arteether 400 μg/ml): 0.890
- Optical density at 620 nanometer (E. coli Wildtype; α arteether 800 μg/ml): 0.90
- Effectiveness against the strains [13]: ineffective
- Sensitivity of the strain (M2 (Mutant)): resistant
- Sensitivity of the strain [5]: sensitive
- Frequency of spontaneous resistance developed against α-arteether [14]: 1.1 × 10^−10
- Frequency of spontaneous resistance developed against α-arteether (Escherchia coli (Nal′)): 1.8 × 10^−9
- pH of best activities (Activity at different pH): 7.0
